BindingDB's records for doi:10.1111/cbdd.12681 (Peking University, 2016)

What follows are compounds tested against T1, Dihydrofolate reductase (Homo sapiens, UniProt P00374) (assay: DHFR Inhibition Assay). Details: pH 7.5.
T1 sequence (P00374 whole entry): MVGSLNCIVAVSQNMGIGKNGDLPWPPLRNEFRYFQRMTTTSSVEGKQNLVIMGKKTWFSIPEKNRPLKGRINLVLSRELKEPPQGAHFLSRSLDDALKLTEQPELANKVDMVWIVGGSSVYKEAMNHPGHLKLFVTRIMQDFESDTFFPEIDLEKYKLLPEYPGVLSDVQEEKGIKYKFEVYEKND
Protocol: The recombinant human (rh) DHFR was purchased from Sigma-Aldrich (Shanghai, China). All rhDHFR enzymes were assayed spectrophotometrically in a solution containing 0.1 mM dihydrofolate, 0.3 mM NADPH and 100 mM KCl at pH 7.5 and 32 °C. The reaction was initiated with an amount of enzyme yielding a change in O.D. at 340 nm measured by microplate spectrophotometer.

| IC50 [nM] | Compound |
| --- | --- |
| 706 | C=CCN1c2c(N)nc(N)nc2CCC1CCc1ccc(C(=O)N[C@@H](CCC(=O)O)C(=O)O)cc1 (stereo partly drawn) [4-[2-(2,4-Diamino-5-allyl-5,6,7,8-tetrahydropyrido[3,2-d]pyrimidin-6-yl)ethyl]benzoyl-L-glutamic acid (20a)] |
| 590 | Nc1nc(N)c2c(n1)CCC(CNc1ccc(C(=O)N[C@@H](CCC(=O)O)C(=O)O)cc1)N2C=O (stereo partly drawn) [N-[4-[2-(2,4-Diamino-5-formyl-5,6,7,8-tetrahydropyrido[3,2-d]pyrimidin-6-yl)methyl]amino]benzoyl]-L-glutamic acid (24a)] |
| 41 | Nc1nc(N)c2c(n1)CCC(CCc1ccc(C(=O)N[C@@H](CCC(=O)O)C(=O)O)cc1)N2C=O (stereo partly drawn) [4-[2-(2,4-Diamino-5-formyl-5,6,7,8-tetrahydropyrido[3,2-d]pyrimidin-6-yl)ethyl]benzoyl-L-glutamic acid (19a)] |
| 10100 | Nc1nc(O)c2c(n1)CCC(CCc1ccc(C(=O)N[C@@H](CCC(=O)O)C(=O)O)cc1)N2C=O (stereo partly drawn) [4-[2-(2-Amino-4-hydroxy-5-formyl-5,6,7,8-tetrahydropyrido[3,2-d]pyrimidin-6-yl)ethyl] benzoyl-L-glutamic acid (22a)] |
| 680 | Nc1nc(N)c2c(n1)CCC(CCc1ccc(C(=O)N[C@@H](CCC(=O)O)C(=O)O)cc1)N2CC(Br)CBr (stereo partly drawn) [4-[2-[2,4-Diamino-5-(2,3-dibromopropyl)-5,6,7,8-tetrahydropyrido[3,2-d]pyrimidin-6-yl]ethyl]benzoyl-L-glutamic acid (21a)] |

More lines, now with the values behind:

| Compound | IC50 [nM] |
| --- | --- |
| C=CCN1c2c(O)nc(N)nc2CCC1CCc1ccc(C(=O)N[C@@H](CCC(=O)O)C(=O)O)cc1 (stereo partly drawn) [4-[2-(2-Amino-4-hydroxy-5-allyl-5,6,7,8-tetrahydropyrido[3,2-d]pyrimidin-6-yl)ethyl]benzoyl-L-glutamic acid (23a)] | 298 |
| Nc1nc(O)c2c(n1)CCC(CCc1ccc(C(=O)N[C@@H](CCC(=O)O)C(=O)O)cc1)N2 (stereo partly drawn) [4-[2-(2-Diamino-4-hydroxy-5,6,7,8-tetrahydropyrido[3,2-d]pyrimidin-6-yl)ethyl]benzoyl-L-glutamic acid (18a)] | 59 |
| Nc1nc(N)c2c(n1)CCC(CCc1ccc(C(=O)N[C@@H](CCC(=O)O)C(=O)O)cc1)N2 (stereo partly drawn) [4-[2-(2,4-Diamino-5,6,7,8-tetrahydropyrido[3,2-d]pyrimidin-6-yl)ethyl]benzoyl-L-glutamic acid (17a)] | 40 |
